Measured values from US20150246946A1, “PEPTIDES AND METHODS FOR TREATING CANCER” (AGENCY FOR SCIENCE, TECHNOLOGY AND RESEARCH, priority 2012, published 2015).
Each block holds one molecule with its values, some of them ahead of it. Bridges are numbered along the chain shown (N, C = ends). [ ]: non-standard residue; d: D form. R8 = C=CCCCCCC[C@@](C)(N)C(=O)O; S5 = C=CCCC[C@](C)(N)C(=O)O; FAM = carboxyfluorescein

Legend:
p53 null thymocytes = assay: cell viability in mouse thymocytes, p53 null; format: cell-based, mice; settings: high doses, 24 hours, annexin V/PI
HCT-116 p53+/+ cells [1] = assay: cell viability (CellTiter-Glo), HCT-116 p53+/+; format: cell-based; settings: 24 hours
Excerpt: (§1) Data was normalized to vehicle-treated controls.

HCT-116 p53−/− cells [2] = assay: cell viability (CellTiter-Glo), HCT-116 p53−/−; format: cell-based; settings: 24 hours
Excerpt: as §1

[3] = test system: thymocytes from p53 wild-type mice; assay: cell viability in mouse thymocytes, p53 wild-type; format: cell-based; settings: p53 wild-type vs p53 deficient mice, 24 hours, annexin V/PI
Description: Thymocytes were isolated from wild-type and p53^+/−mice (age 4-9 weeks) and kept in a PBS/FCS (2%) solution (ref). Cells were plated at a density of 1×10^6 per well in 24-well plates in medium [DMEM/Hepes (25 mM, pH 7.2), 5% FCS, penicillin/streptomycin, glutamine] and incubated at 37° C. with 2% C02. […] Cell were then analysed for viability using this procedure, cells were washed with cold PBS, and stained with FITC-labeled annexin V antibody (PharMingen) and PI (Sigma). The relative amounts of apoptotic cells were determined by binding of annexin V and subsequent fluorescence-activated cell sorter analysis. All values were normalized to the number of cells remaining viable in vehicle (1% DMSO) treated cultures derived from the same animal stained simultaneously. Data are representatives of n=4 independent experiments.

HCT-116 p53+/+ cells [4] = assay: Caspase-Glo 3/7 assay, HCT-116 p53+/+; format: cell-based; settings: 24 hours
Excerpt: as §1

SJSA-1 cell line = assay: caspase 3/7 activity in SJSA-1 cell line; settings: SJSA-1 cells, titration
[5] = test system: p53 responsive LacZ reporter gene in T22 cell line; assay: T22 p53 β-galactosidase based reporter assay; format: cell-based, murine; settings: for p53 transcriptional activity in T22 p53 reporter assay: 18 hours, DMEM with 10% FBS
Description: T22 cells, which were stably transfected with a p53 responsive […] reporter, were seeded into 96-well plate at a cell density of 8000 cells per well. […] Measurements were carried out using a Safire II multiplate reader (TECAN). Experiments were carried out independently twice.

[6] = biological target: T1, interaction of p53 with Mdm2 in living BHK cells (Homo sapiens, UniProt Q00987); assay: F2H co-localization assay p53:Mdm2; format: cell-based; settings: 0 to 50 μM
T1 construct: the prey is a fusion of either Mdm2 (7-134) or Mdm4 (1-129) with RFP; host or cells: transgenic BHK cells with lac operator repeats
T1 sequence (Q00987 7-134): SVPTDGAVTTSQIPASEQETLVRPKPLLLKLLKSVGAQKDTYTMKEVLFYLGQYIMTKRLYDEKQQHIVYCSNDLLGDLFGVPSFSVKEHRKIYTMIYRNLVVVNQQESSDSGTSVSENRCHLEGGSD

[7] = biological target: T2, interaction of p53 with Mdm4 in living BHK cells (Homo sapiens, UniProt O15151); assay: F2H co-localization assay p53:Mdm4; format: cell-based; settings: 0 to 50 μM
T2 construct: Mdm4 (1-129) with RFP; host or cells: transgenic BHK cells with lac operator repeats
T2 sequence (O15151 1-129): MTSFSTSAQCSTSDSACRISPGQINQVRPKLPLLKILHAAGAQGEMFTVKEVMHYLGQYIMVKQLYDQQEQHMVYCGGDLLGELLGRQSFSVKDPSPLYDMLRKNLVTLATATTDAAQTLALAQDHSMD

Mdm2 (1-125) [8] = biological target: T3, Mdm2 (1-125) (Homo sapiens, UniProt Q00987); assay: competitive fluorescence polarization/anisotropy, apparent Kd against Mdm2; format: binding
T3 construct: Mdm2 (1-125) and Mdm4 (1-125) were ligated into the GST fusion expression vector pGEX-6P-1; GST (N, cleaved yes); made in house; host or cells: E. coli BL21 DE3
T3 sequence (Q00987 1-125): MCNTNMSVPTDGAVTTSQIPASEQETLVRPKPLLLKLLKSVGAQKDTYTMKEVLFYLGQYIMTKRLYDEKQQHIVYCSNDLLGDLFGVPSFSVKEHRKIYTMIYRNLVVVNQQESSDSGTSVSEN
Description: (§2) The cells expressing the GST fusion constructs were grown in LB medium at 37° C. to an OD600 of ˜0.6 and induction was started with 1 mM IPTG and carried out overnight at room temperature. Cells were harvested by centrifugation and the cell pellets were re-suspended in 50 mM Tris pH 8.0, 10% sucrose and were then sonicated. The sonicated sample was centrifuged for 60 mins at 17,000 g at 4° C. […] The column was then further washed by 6 volumes of wash buffer. Mdm2 and Mdm4 were then purified from the column by cleavage with Precission (GE Lifesciences) protease. 10 units of precission protease, in one column volume of PBS with 1 mM DTT buffer, were injected onto the column. The cleavage reaction was allowed to proceed overnight at 4° C. The cleaved protein was then eluted of the column with wash buffer. Protein fractions were analyzed with SDS page gel and concentrated using a Centricon (3.5 kDa MWCO) concentrator, Millipore. Mdm2 and Mdm4 protein samples were then dialyzed into a buffer solution containing 20 mM Bis-Tris, pH 6.5, 0.05M NaCl with 1 mM DTT and loaded onto a monoS column pre-equilibrated in buffer A (20 mM Bis-Tris, pH 6.5, 1 mM DTT). The column was then washed in 6 column volumes of buffer A and bound protein was eluted with a linear gradient of 1M NaCL over 25 column volumes. Protein fractions were analyzed with SDS page gel and concentrated using a Centricon (3.5 kDa MWCO) concentrator from Millipore.
(§3) Apparent Kd values were determined for a variety of molecules via competitive fluorescence anisotropy experiments. […] The competing molecules were then titrated against complex of the FAM labelled peptide and protein. Apparent Kd values were determined by fitting the experimental data to the equations shown below:
(§4) [L]st and [L]t denote labelled ligand and total unlabelled ligand input concentrations, respectively. Kd2 is the dissociation constant of the interaction between the unlabelled ligand and the protein. In all competitive types of experiments, it is assumed that [P]t>[L]st, otherwise considerable amounts of free labelled ligand would always be present and would interfere with measurements. […] The FAM-labelled peptide were dissolved in DMSO at 1 mM and diluted into experimental buffer. Readings were carried out with a Envision Multilabel Reader (PerkinElmer). […] All titrations were carried out in triplicate. Curve-fitting was carried out using Prism 4.0 (GraphPad).

HCT-116 p53+/+ cells [9] = assay: HCT-116 Western blot analysis; format: cell-based; settings: 6 hours, with or without fetal calf serum, FIG. 2d
Description: Cells were treated with various compounds/vehicle controls at the time points and concentrations indicated also in acoy's media with 10% FBS. Cells were rinsed with PBS and then harvested in 200 μl of 1× NuPAGE LDS sample buffer supplied by Invitrogen (NP0008). Samples were then sonicated, heated to 90° C. for 5 mins, sonicated twice for 10 s and centrifuged at 13, 000 rpm for 5 minutes. Protein concentrations were measured by BCA assay (Pierce). Western blots were then performed using antibodies against actin (AC-15, Sigma) as a loading control, p21 (118 mouse monoclonal), Mdm2 (4B2 mouse monoclonal) and p53 (DO-1 mouse monoclonal).

HCT116 p53+/+ cells = assay: cell cycle analysis (propidium iodide flow cytometry); format: cell-based; settings: 24 hours; for cell cycle distribution at high concentrations: high concentration (FIG. 5); for cell cycle distribution at low concentrations: low concentration (FIG. 4c)
Description: Three hundred fifty thousand cells were then seeded per well in 6-well plates containing incubated overnight. […] A 1% DMSO vehicle control treatment was also carried out. Cells were washed with PBS and then detached from the plate surface by trypsinisation. […] Cells were spun down and resuspended with PI-staining solution containing RNase A. Cells were analyzed using an LSR II (Becton Dickinson).

Mdm4 (1-125) [10] = biological target: T4, Mdm4 (1-125) (Homo sapiens, UniProt O15151); assay: competitive fluorescence polarization/anisotropy, apparent Kd against Mdm4; format: binding
T4 construct: Mdm4 (1-125) were ligated into the GST fusion expression vector pGEX-6P-1; GST (N, cleaved yes); made in house; host or cells: E. coli BL21 DE3
T4 sequence (O15151 1-125): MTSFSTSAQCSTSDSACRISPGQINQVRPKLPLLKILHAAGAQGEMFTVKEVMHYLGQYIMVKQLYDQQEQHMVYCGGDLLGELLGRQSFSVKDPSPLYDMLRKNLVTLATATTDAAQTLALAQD
Description: as §2, §3, §4

HCT-116 p53−/− cells [11] = assay: Caspase-Glo 3/7 assay, HCT-116 p53−/−; format: cell-based; settings: 24 hours
Excerpt: as §1

Mdm2 (1-125) [12] = biological target: T5, Mdm2 (1-125) (human, UniProt Q00987 1-125); assay: competitive fluorescence polarization
T5 construct: range 1-125; also called Hdm2
T5 sequence (Q00987 1-125 limits assumed): as the sequence (Q00987 1-125) above

Mdm4 (1-125) [13] = biological target: T6, Mdm4 (1-125) (human, UniProt O15151 1-125); assay: competitive fluorescence polarization
T6 construct: range 1-125; also called MDMX; Hdm4
T6 sequence (looked up): T4 sequence (O15151 1-125)

Mdm2 (1-125) [14] = biological target: T5, Mdm2 (1-125); assay: apparent Kd, competitive fluorescence polarization; displacement of FAM-…-NH2 from Mdm2 (1-125)
Mdm4 (1-125) [15] = biological target: T6, Mdm4 (1-125); assay: apparent Kd, competitive fluorescence polarization; displacement of FAM-…-NH2 from Mdm4 (1-125)
Mdm4 (1-125) [16] = biological target: T6, Mdm4 (1-125); assay: direct fluorescence anisotropy titration of Mdm4 (1-125) against 50 nM labelled peptide, 1:1 model

Molecule: CC(=O)N[C@H](C(=O)N[C@@H](CO)C(=O)N[C@@H](Cc1ccccc1)C(=O)N[C@]1(C)CCCCCCC=CCCC[C@@](C)(C(N)=O)NC(=O)[C@H](CC(C)C)NC(=O)[C@H](CC(C)C)NC(=O)[C@H](C)NC(=O)[C@H](Cc2c[nH]c3cc(Cl)ccc23)NC(=O)[C@H](Cc2ccc(O)cc2)NC(=O)[C@H](CCC(=O)O)NC1=O)[C@@H](C)O [sMTide-02A, Ac-^1TSFXEY(L-6-Cl)WALLX^11-NH2]
apoptosis in p53 null thymocytes (p53 null thymocytes): to a certain extent
cell viability (HCT-116 p53+/+ cells [1]): no significant decrease in the viability
cell viability (HCT-116 p53−/− cells [2]): no significant decrease in the viability
cell death in thymocytes [3]: induced cell death in a p53-dependent manner
caspase 3/7 activity (HCT-116 p53+/+ cells [4]): negligible caspase 3/7 activity
induction of caspase 3/7 activity (SJSA-1 cell line): induced caspase 3/7 activity at substantially higher concentrations than nutlin
p53 transcriptional activity in T22 p53 reporter assay [5]: much higher fold induction of p53 transcriptional activity than the unmodified sMTide-02
disruption of p53 interaction with Mdm2 (F2H) [6]: dissociate Mdm2 from p53
preference between Mdm2 and Mdm4 in binding (Mdm2 (1-125) [8]; comparison of apparent Kds): preference for Mdm2 over Mdm4
effect of serum on activity (HCT-116 p53+/+ cells [9]): significantly improved potency in the absence of serum
cell cycle distribution at high concentrations (HCT116 p53+/+ cells): G2 arrest
cell cycle distribution at low concentrations (HCT116 p53+/+ cells): G2 arrest
Mdm4 Kd (Mdm4 (1-125) [10]; apparent Kd, competitive fluorescence polarization, Mdm4 75 nM, FAM peptide 50 nM): significantly attenuated
caspase 3/7 activity (HCT-116 p53−/− cells [11]): negligible caspase 3/7 activity

B2: carboxyfluorescein (FAM) labelled 12-1 peptide (FAM-RFMDYWEGL-NH2) (peptide)
peptide: {FAM}-RFMDYWEGL-NH2
notes: Labelled probe of the fluorescence anisotropy assays; also called FAM labeled probe
Kd (Mdm4 (1-125) [16]): 4.2 nM

Now from value to molecule, other results behind:

disruption of p53 interaction with Mdm2 (F2H) [6]: dissociate Mdm2 from p53
disruption of p53 interaction with Mdm4 (F2H) [7]: greater potency against Mdm4
increase in Kd against Mdm2 in comparison to unstapled counterpart (Mdm2 (1-125) [8]; stapled vs unstapled peptide): negligible increase
Kd (Mdm4 (1-125) [10]): 45.7 ± 7.65 nM
increase in Kd against Mdm4 in comparison to unstapled counterpart (Mdm4 (1-125) [10]; stapled vs unstapled peptide): 2 fold
Molecule: CC(=O)N[C@H](C(=O)N[C@@H](CO)C(=O)N[C@@H](Cc1ccccc1)C(=O)N[C@]1(C)CCCCCCC=CCCC[C@@](C)(C(N)=O)NC(=O)[C@H](CC(C)C)NC(=O)[C@H](CC(C)C)NC(=O)[C@H](C)NC(=O)[C@H](Cc2c[nH]c3ccccc23)NC(=O)[C@H](Cc2ccc(O)cc2)NC(=O)[C@H](CCC(=O)O)NC1=O)[C@@H](C)O [sMTide-02, Ac-^1TSFXEYWALLX^11-NH2]
apoptosis in p53 null thymocytes (p53 null thymocytes): did not
cell viability (HCT-116 p53+/+ cells [1]): no significant decrease in the viability
cell viability (HCT-116 p53−/− cells [2]): no significant decrease in the viability
cell death in thymocytes [3]: induced cell death in a p53-dependent manner
caspase 3/7 activity (HCT-116 p53+/+ cells [4]): negligible caspase 3/7 activity
induction of caspase 3/7 activity (SJSA-1 cell line): induced caspase 3/7 activity at substantially higher concentrations than nutlin
p53 transcriptional activity in T22 p53 reporter assay [5]: strongest p53 transcriptional response ever seen in this assay
effect of PGP inhibitor PSC-883 on p53 response in the reporter assay ([5]; with 20 μM PSC-883 vs without): significantly improved the sensitivity of the p53 response
effect of serum on activity (HCT-116 p53+/+ cells [9]): significantly improved potency in the absence of serum
cell cycle distribution at high concentrations (HCT116 p53+/+ cells): G2 arrest
cell cycle distribution at low concentrations (HCT116 p53+/+ cells): G2 arrest
caspase 3/7 activity (HCT-116 p53−/− cells [11]): negligible caspase 3/7 activity

fold increase in Kd against its unstapled counterpart (MTide-01) (Mdm2 (1-125) [12]): ~2 fold
fold increase in Kd against its unstapled counterpart (MTide-01) (Mdm4 (1-125) [13]): ~4 fold
Kd (Mdm2 (1-125) [14]): 87 nM
Kd (Mdm4 (1-125) [15]): 118 nM
B1: sMTide-01 (peptide)
peptide: Ac-TSF[R8]EYWNLL[S5]-NH2
modifications: staple 4-11
SMILES: CC(=O)N[C@H](C(=O)N[C@@H](CO)C(=O)N[C@@H](Cc1ccccc1)C(=O)N[C@]1(C)CCCCCCC=CCCC[C@@](C)(C(N)=O)NC(=O)[C@H](CC(C)C)NC(=O)[C@H](CC(C)C)NC(=O)[C@H](CC(N)=O)NC(=O)[C@H](Cc2c[nH]c3ccccc23)NC(=O)[C@H](Cc2ccc(O)cc2)NC(=O)[C@H](CCC(=O)O)NC1=O)[C@@H](C)O
notes: Stapled derivative of MTide-01; also called Ac-TSFXEYWNLLX-NH2
